Data as given in PMC8648660, “Multifunctional thiosemicarbazones targeting sigma receptors: in vitro and in vivo antitumor activities in pancreatic cancer models” (Cellular Oncology, 2021).

What was measured:
[1] = system: PANC-1 xenografts; test: In vivo xenograft assay, PANC-1; parameters: species or system mice; conditions: for tumor growth / intratumor apoptosis (cleaved caspase 3) and lipid peroxidation: 30 days
Protocol: 2 × 10^5 PANC-1 or Mia-PaCa2 cells were inoculated subcutaneously in the right flank of 6-week old C57BL/6 female nude mice (Charles River Laboratories Italia, Calco), housed (5 per cage) under a 12 h light/dark cycle, with food and drinking water provided ad libitum. Tumor growth was measured daily by caliper, according to the equation (LxW^2)/2, where L = tumor length and W = tumor width. When tumors reached a volume of 100 mm^3, the mice (n = 8/group) were randomized in the following groups and treated daily for 15 days or 30 days intraperitoneally as reported: (1) Vehicle group (100 µl saline solution), (2) FA4^low group (750 nmol FA4 in 100 µl saline solution), (3) FA4^high group (1500 nmol FA4 in 100 µl saline solution) and (4) Gemcitabine group (20 mg/kg gemcitabine, twice a week). Tumor volumes and animal weights were monitored daily. Animals were euthanized at day 18 or 36 after randomization with zolazepam (0.2 ml/kg) and xylazine (16 mg/kg). Next, tumors were excised and paraffin-embedded. Sections were immuno-stained for cleaved caspase 3 (Cell Signalling Technology, Danvers, MA, USA) or with an anti-malondialdehyde antibody (Abcam), followed by a peroxidase-conjugated secondary antibody (Dako, Glostrup, Denmark). The sections were examined under a Leica DC100 microscope (Leica, Wetzlar, Germany). Quantification of the immunohistochemical analyses was performed using ImageJ software (https://imagej.nih.gov/). The staining intensities were expressed as arbitrary units and considered 1 in the vehicle group.

[2] = system: human (MiaPaCa2, PANC-1, AsPC1, BxPC3) and murine (KP02, PANC02) pancreatic cancer cells; test: Cell viability MTT assay 48 h, panel of pancreatic cancer cell lines; assay type: cell-based; conditions: range over six pancreatic cancer cell lines; read-out: EC50 cytotoxic activity in all the cell lines studied
Protocol: (§1) Cell viability was assessed using a MTT assay at 48 h. On day 1, 25,000 cells/well were seeded into 96-well plates in 100 µl culture medium. On day 2, drugs at concentrations ranging from 1 µM to 100 µM were added. In all experiments the drug-solvents (EtOH, DMSO) were added as controls to evaluate possible solvent cyto-toxicities. After the established incubation time with drugs (48 h), MTT (0.5 mg/ml) was added to each well, and after 3–4 h incubation at 37 °C, the supernatants were removed. The formazan crystals formed were solubilized using 100 µl DMSO/EtOH (1:1) after which the absorbance values at 570 and 630 nm were determined using a microplate reader Victor 3 from PerkinElmer Life Sciences.

[3] = system: GRP78, ATF6, IRE1 and PERK; test: qRT-PCR of ER stress markers in pancreatic cancer cells; assay type: cell-based, human and murine; conditions: 50 µM, 2 h
Protocol: Total RNA was extracted using a phenol/chloroform method, after which 1 µg RNA was reverse-transcribed using an iScript Reverse Transcription Supermix kit according to the manufacturer’s instructions (Bio-Rad Laboratories). 25 ng cDNA was amplified using 10 µl of an IQ™ SYBR Green Supermix (Bio-Rad Laboratories). Primers were designed using qPrimer Depot software (http://primerdepot.nci.nih.gov/). qRT-PCR was carried out using an iQ^TM5 cycler (Bio-Rad Laboratories). The cycling conditions used were: 30 s at 95 °C, followed by 40 cycles of denaturation (15 s at 95 °C) and annealing/extension (30 s at 60 °C). The same cDNA preparations were used to quantify the expression of genes of interest and that of the housekeeping gene S14, which was used to normalize the gene expression levels. Relative quantitation of each sample was performed using Gene Expression Quantitation software (Bio-Rad Laboratories). The results were expressed in arbitrary units. For each gene, the expression level in untreated cells was arbitrarily set at “1”.

[4] = system: caspase 9; test: Caspase 9 activity assay in pancreatic cancer cells; assay type: cell-based, human and murine; conditions: 2 h
Protocol: (§2) Caspase 3, caspase 7 and caspase 9 activation was measured using a Caspase 3/7 Fluorescence Assay kit (Cayman Chemical, Ann Arbor, MI, USA) and a Caspase 9 fluorometric assay kit (Enzo Life Science, Roma, Italy). The results are expressed as nmol of the hydrolyzed substrate of each caspase/mg cellular proteins, according to a previously set titration curve.

[5] = system: mitochondrial ROS; test: Mitochondrial ROS measurement (MitoSOX); assay type: cell-based, human and murine; conditions: 50 µM, 2 h
Protocol: Intra-mitochondrial ROS was measured using fluorescent probe MitoSOX as per manufacturer’s instructions (Invitrogen). To measure total ROS, cells were incubated with the ROS-sensitive probe 5-(and-6)-chlorometyl-20,70-dichlorodihydro-fluorescein diacetate-acetoxymethyl ester ([…]; DCFDA-AM) as described by Riganti et al.. The results are expressed as nmol/mg mitochondrial or cellular protein, respectively.

[6] = system: PANC02 cells; test: Cell viability MTT assay 48 h; assay type: cell-based, murine; conditions: Mus musculus, MTT 48 h, read-out: Activity EC50 ± SEM, PANC02
Protocol: as §1

[7] = system: caspase 7; test: Caspase 7 activity assay in pancreatic cancer cells; assay type: cell-based, human and murine; conditions: 50 µM, 2 h
Protocol: as §2

[8] = system: mitochondrial depolarization; test: Mitochondrial depolarization assay (JC-1); assay type: cell-based, human and murine; conditions: 50 µM, 2 h, JC1 staining
Protocol: Staining with JC-1 fluorescent probe (Biotium Inc., Freemont, CA, USA) was performed as detailed in Riganti et al.. The resulting fluorescence units were used to calculate the percentage of green-fluorescent (i.e., depolarized) mitochondria versus red-fluorescent (i.e., polarized) mitochondria.

[9] = system: MiaPaCa2 xenografts; test: In vivo xenograft assay, MiaPaCa2; parameters: species or system mice; conditions: FA4 750 and 1500 nmol i.p. daily, 15 days
Protocol: 2 × 10^5 PANC-1 or Mia-PaCa2 cells were inoculated subcutaneously in the right flank of 6-week old C57BL/6 female nude mice (Charles River Laboratories Italia, Calco), housed (5 per cage) under a 12 h light/dark cycle, with food and drinking water provided ad libitum. Tumor growth was measured daily by caliper, according to the equation (LxW^2)/2, where L = tumor length and W = tumor width. When tumors reached a volume of 100 mm^3, the mice (n = 8/group) were randomized in the following groups and treated daily for 15 days or 30 days intraperitoneally as reported: (1) Vehicle group (100 µl saline solution), (2) FA4^low group (750 nmol FA4 in 100 µl saline solution), (3) FA4^high group (1500 nmol FA4 in 100 µl saline solution) and (4) Gemcitabine group (20 mg/kg gemcitabine, twice a week). Tumor volumes and animal weights were monitored daily. Animals were euthanized at day 18 or 36 after randomization with zolazepam (0.2 ml/kg) and xylazine (16 mg/kg). Next, tumors were excised and paraffin-embedded. […] Quantification of the immunohistochemical analyses was performed using ImageJ software (https://imagej.nih.gov/). The staining intensities were expressed as arbitrary units and considered 1 in the vehicle group.

[10] = molecular target: T1, sigma-2 receptors (Mus musculus, UniProt Q8VD00); test: Flow cytometry displacement of sigma-2 fluorescent ligand NO1 in murine KP02 cells; assay type: binding
T1 construct: endogenous in cells; host or cells: KP02 (murine pancreatic cancer cells)
T1 sequence (Q8VD00 whole entry): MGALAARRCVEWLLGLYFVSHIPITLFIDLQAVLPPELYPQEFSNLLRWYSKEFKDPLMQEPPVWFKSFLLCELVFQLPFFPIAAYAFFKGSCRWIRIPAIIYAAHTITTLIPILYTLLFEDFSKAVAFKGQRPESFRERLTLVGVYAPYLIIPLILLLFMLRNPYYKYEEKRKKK
Protocol: Flow cytometry studies to detect receptor densities and ligand binding affinities were carried out according to Abate et al. and Niso et al., for the sigma-1 and sigma-2 receptors, respectively. […] At the end of the incubation periods, the cells were washed twice with PBS, detached with […] Cell Dissociation Solution (Sigma Chemical Co.) for 10 min at 37 °C, centrifuged at 13,000 g for 5 min and resuspended in 500 µl PBS. Fluorescence was recorded using a Bio-Guava® easyCyte™ 5 Flow Cytometry System (Millipore, Billerica, MA, USA) equipped with a 530 nm band pass filter. For each analysis, 50,000 events were collected and analyzed using InCyte software (Millipore).

SMILES: CN(C)C(=S)N/N=C1\C(=O)N(CCCCN2CCC3(CC2)OCc2ccccc23)c2ccccc21 [FA4, (Z)-2-(1-(4-(3 H-spiro[isobenzofuran-1,4’-piperidine]-1’-yl)butyl)-2-oxoindolin-3-ylidene)-N,N-dimethylhydrazinecarbothioamide]
- tumor volume vs vehicle ([1]; FA4 750 nmol (low) and 1500 nmol (high) i.p. daily, 15 days): tumors were significantly smaller
- tumor growth ([1]; FA4 high dosage 1500 nmol i.p. daily): regression of tumor growth
- intratumor apoptosis (cleaved caspase 3) and lipid peroxidation ([1]; FA4 high dosage): became more pronounced
- tumor growth ([1]; FA4 low dosage 750 nmol i.p. daily): cytostatic effect
- intratumor apoptosis (cleaved caspase 3) and lipid peroxidation ([1]; FA4 low dosage): low or undetectable
- EC50 [2]: 880 to 3010 nM
- mRNA expression of ER stress markers GRP78, ATF6, IRE1, PERK [3]: increased upon treatment with FA4 in all the cells tested, except in MiaPaCa2 cells
- activation of caspase 9 and caspase 3 with mitoquinol ([4]; 50 µM FA4 plus 0.4 µM mitoquinol): did not find any activation of caspase 9 and caspase 3
- caspase 9 activation ([4]; 50 µM): observed in all the cells in which FA4 increased mitochondrial ROS and depolarization
- mitochondrial ROS [5]: increased mitochondrial ROS in all the cell lines tested, except MiaPaCa2
- EC50 [6]: 1940 ± 500 nM
- caspase 7 activation [7]: activated by FA4 in all cell lines except MiaPaCa2
- mitochondrial depolarization [8]: all FA4-treated cells had depolarized (i.e., damaged) mitochondria, except MiaPaCa2
- tumor growth [9]: ineffective at both dosages
- IC50 [10]: 11.6 ± 1.5 nM
